Reference: ChEMBL document CHEMBL5674873, “Expression and inhibition of BRD4, EZH2 and TOP2A in neurofibromas and malignant peripheral nerve sheath tumors” (PLoS One, 2017)

How the values were obtained:
Assay type in all cases: cell-based; call rule not given here
[1] = biological target: T1, Bromodomain-containing protein 4 (Homo sapiens, UniProt O60885); test: Inhibition of BRD4 in human HS53T cells assessed as reduction in cell viability at 4.9 to 2500 nM incubated for 72 hrs by SRB assay
[2] = biological target: T1, Bromodomain-containing protein 4; test: Inhibition of BRD4 in human ST88-14 cells assessed as reduction in cell viability at 4.9 to 2500 nM incubated for 72 hrs by SRB assay
[3] = biological target: T1, Bromodomain-containing protein 4; settings: sts-26t
Description: Inhibition of BRD4 in human STS-26T cells assessed as reduction in cell viability at 4.9 to 2500 nM incubated for 72 hrs by SRB assay

[4] = biological target: DNA topoisomerase 2-alpha (Homo sapiens, UniProt P11388); test: Inhibition of TOP2A in human HS53T cells assessed as reduction in cell viability at 1 to 500 ng/ml incubated for 72 hrs by SRB assay
Sequence of DNA topoisomerase 2-alpha (P11388 whole entry): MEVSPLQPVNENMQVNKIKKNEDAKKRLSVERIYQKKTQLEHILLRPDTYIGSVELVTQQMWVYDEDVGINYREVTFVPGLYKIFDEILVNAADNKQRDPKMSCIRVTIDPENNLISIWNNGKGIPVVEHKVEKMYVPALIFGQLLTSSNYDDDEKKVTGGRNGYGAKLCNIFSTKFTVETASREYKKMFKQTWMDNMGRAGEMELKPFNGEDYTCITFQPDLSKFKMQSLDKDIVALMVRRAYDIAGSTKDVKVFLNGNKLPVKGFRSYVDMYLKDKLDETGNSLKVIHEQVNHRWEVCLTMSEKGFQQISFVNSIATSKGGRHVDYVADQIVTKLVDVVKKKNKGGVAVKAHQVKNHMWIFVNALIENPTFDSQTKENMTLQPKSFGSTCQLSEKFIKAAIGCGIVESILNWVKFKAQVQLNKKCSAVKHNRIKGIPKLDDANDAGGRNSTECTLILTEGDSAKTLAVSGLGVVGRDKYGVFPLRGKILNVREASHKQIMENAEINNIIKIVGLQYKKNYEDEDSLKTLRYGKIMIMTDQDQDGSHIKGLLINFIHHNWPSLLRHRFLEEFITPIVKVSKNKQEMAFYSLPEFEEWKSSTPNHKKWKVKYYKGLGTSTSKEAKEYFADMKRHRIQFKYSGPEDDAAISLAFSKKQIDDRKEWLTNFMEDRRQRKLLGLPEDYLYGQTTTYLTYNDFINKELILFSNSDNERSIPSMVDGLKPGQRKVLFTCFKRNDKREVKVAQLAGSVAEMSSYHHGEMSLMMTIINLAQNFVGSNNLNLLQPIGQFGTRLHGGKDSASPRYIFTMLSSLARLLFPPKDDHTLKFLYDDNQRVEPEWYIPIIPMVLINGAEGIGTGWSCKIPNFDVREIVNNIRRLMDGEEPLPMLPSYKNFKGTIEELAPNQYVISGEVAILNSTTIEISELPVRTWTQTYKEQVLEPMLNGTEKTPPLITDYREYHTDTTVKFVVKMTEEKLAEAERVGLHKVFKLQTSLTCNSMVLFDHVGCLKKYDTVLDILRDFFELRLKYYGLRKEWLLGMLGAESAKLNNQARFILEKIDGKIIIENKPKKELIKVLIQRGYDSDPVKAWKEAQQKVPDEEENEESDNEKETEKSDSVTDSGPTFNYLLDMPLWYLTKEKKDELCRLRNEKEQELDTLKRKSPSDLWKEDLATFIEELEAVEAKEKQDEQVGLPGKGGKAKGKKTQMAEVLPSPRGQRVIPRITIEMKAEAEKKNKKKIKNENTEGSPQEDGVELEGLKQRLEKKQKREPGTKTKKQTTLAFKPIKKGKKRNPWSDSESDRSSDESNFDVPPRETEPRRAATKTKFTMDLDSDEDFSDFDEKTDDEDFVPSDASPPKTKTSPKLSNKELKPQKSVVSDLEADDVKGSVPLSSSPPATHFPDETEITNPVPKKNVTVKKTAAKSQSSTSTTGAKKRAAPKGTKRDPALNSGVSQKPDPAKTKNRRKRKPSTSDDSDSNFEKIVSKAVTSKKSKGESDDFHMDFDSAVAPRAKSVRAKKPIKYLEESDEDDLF

SMILES | IC50 [1] | IC50 [2] | IC50 [3] | IC50 [4]
Cc1sc2c(c1C)C(c1ccc(Cl)cc1)=N[C@@H](CC(=O)OC(C)(C)C)c1nnc(C)n1-2 | Not Active | Not Active | Not Active | –
COc1cccc2c1C(=O)c1c(O)c3c(c(O)c1C2=O)C[C@@](O)(C(=O)CO)C[C@@H]3O[C@H]1C[C@H](N)[C@H](O)[C@H](C)O1 [DOXORUBICIN] | – | – | – | Not Active
